The record followed here is US12673954B2 (BRISTOL-MYERS SQUIBB COMPANY, priority 2021, dated 2026).

As a reminder, the EC50 is the concentration needed to bring the measured effect to its halfway point.

The test system of assay [1] is NF-κB pathway, THP1-Dual™ cells. As to the kind of experiment: STING reporter assay in THP1-Dual cells, NF-κB pathway (SEAP, QUANTI-Blue). The settings on record: read-out: NFkB (EC50 μM). The assay is classed as cell-based, human. In short, it runs like this: (§1)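 THP-1-derived dual-reporter cells treated with serially diluted compounds (final top concentration 100 μM) for 20 h at 37° C. NF-κB read as SEAP via QUANTI-Blue at OD620; IRF read as Lucia luminescence via QUANTI-Luc after 5 min. 100% activation set by 100 μM cGAMP, baseline by DMSO.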

Assay [2] relates to IRF pathway, THP1-Dual™ cells. Put plainly: STING reporter assay in THP1-Dual cells, IRF pathway (Lucia luciferase, QUANTI-Luc). It is filed as cell-based, human. The settings on record: read-out: IRF (EC50 μM). The method, boiled down: as §1
The mark [3] stands for this setting: Homo sapiens, THP1-Dual, 20 h, THP1-Dual cells, 10% human plasma, 20 hours, SEAP, 100% activation = 100 μM cGAMP.
Setting [4] is: Homo sapiens, THP1-Dual, 20 h, THP1-Dual cells, 10% human plasma, 20 hours, Lucia luciferase, 100% activation = 100 μM cGAMP.
Where [5] appears, read: THP1-Dual cells, 10% human plasma, 20 hours, SEAP, 100% activation = 100 μM cGAMP.
The mark [6] stands for this setting: THP1-Dual cells, 10% human plasma, 20 hours, Lucia luciferase, 100% activation = 100 μM cGAMP.

Read-outs that look alike come from different tables or passages of the source.

For `C[C@H](NC(=O)c1cnn2cccnc12)c1cc2cc(Cl)cc(C(=O)SCC[Si](C)(C)C)c2o1` [EXAMPLE 400, S-(2-(Trimethylsilyl)ethyl) (S)-5-chloro-2-(1-(pyrazolo[1,5-a]pyrimidine-3-carboxamido)ethyl)benzofuran-7-carbothioate], the EC50 in assay [1] (Homo sapiens, THP1-Dual, 20 h) is 22 µM; in assay [2] (Homo sapiens, THP1-Dual, 20 h), 25 µM.
Turning to `CSC(=O)c1cc(Cl)cc2cc([C@H](C)NC(=O)c3cnn4cccnc34)oc12` [EXAMPLE 401], the EC50 in assay [1] (setting [3]) and in assay [2] (setting [4]) was 1.9 µM throughout.
With `CSC(=O)c1cc(Cl)cc2c(Cl)c([C@H](C)NC(=O)c3cnn4cccnc34)oc12` [EXAMPLE 402], the concentration for a half-maximal effect (EC50) in assay [1] (setting [3]) and in assay [2] (setting [4]) was 2.4 µM throughout.
Take `O=C(NCC(F)(F)F)c1cc(Cl)cc2cc(CNC(=O)c3cnn4cccnc34)oc12` [EXAMPLE 403, N-((5-Chloro-7-((2,2,2-trifluoroethyl)carbamoyl)benzofuran-2-yl)methyl)pyrazolo[1,5-a]pyrimidine-3-carboxamide]: the EC50 in assay [1] (setting [3]) is 97 µM; in assay [2] (setting [4]) it was greater than 100 µM.
The matching figures for `Cc1cc(C(N)=O)c2oc(CNC(=O)c3cnn4cccnc34)cc2c1` [EXAMPLE 404, N-((7-Carbamoyl-5-methylbenzofuran-2-yl)methyl)pyrazolo[1,5-a]pyrimidine-3-carboxamide]: 83 µM and greater than 100 µM.
The matching figures for `O=C(NO)c1cc(Cl)cc2cc(CNC(=O)c3cnn4cccnc34)oc12` [EXAMPLE 405, N-((5-Chloro-7-(hydroxycarbamoyl)benzofuran-2-yl)methyl)pyrazolo[1,5-a]pyrimidine-3-carboxamide]: 61 µM and 30 µM.
The matching figures for `CONC(=O)c1cc(Cl)cc2cc(CNC(=O)c3cnn4cccnc34)oc12` [EXAMPLE 406, N-((5-Chloro-7-(methoxycarbamoyl)benzofuran-2-yl)methyl)pyrazolo[1,5-a]pyrimidine-3-carboxamide]: 7.1 µM and 9.4 µM.
On to `Cc1cc(C(=O)NO)c2oc(CNC(=O)c3cnn4cccnc34)c(Cl)c2c1` [EXAMPLE 407, N-((3-chloro-7-(hydroxycarbamoyl)-5-methylbenzofuran-2-yl)methyl)pyrazolo[1,5-a]pyrimidine-3-carboxamide], for which the results for the EC50 in assay [1] (setting [3]) and in assay [2] (setting [4]) were 37 µM and 30 µM, respectively.
For `CONC(=O)c1cc(C)cc2c(Cl)c(CNC(=O)c3cnn4cccnc34)oc12` [EXAMPLE 408, N-((3-chloro-7-(methoxycarbamoyl)-5-methylbenzofuran-2-yl)methyl)pyrazolo[1,5-a]pyrimidine-3-carboxamide] the same measures were 1.2 µM and 0.91 µM.
For `O=C(NCc1cc2cc(Cl)cc(-c3nnn[nH]3)c2o1)c1cncc2cccnc12` [EXAMPLE 410, N-((5-Chloro-7-(1H-tetrazol-5-yl)benzofuran-2-yl)methyl)-1,6-naphthyridine-8-carboxamide] the same measures were greater than 100 µM and 79 µM.
The matching figures for `COC(=O)Cc1cc(F)cc2cc(CNC(=O)c3cnn4cccnc34)oc12` [Example 47, Methyl 2-(5-fluoro-2-((pyrazolo[1,5-a]pyrimidine-3-carboxamido)methyl)benzofuran-7-yl)acetate]: 8.5 µM and 6.7 µM.
As for `COC(=O)c1cc(Cl)cc2cc(CNC(=O)c3cnn4cccnc34)oc12` [Example 48, Methyl 5-chloro-2-((pyrazolo[1,5-a]pyrimidine-3-carboxamido)methyl)benzofuran-7-carboxylate], the EC50 in assay [1] (setting [3]) is 0.68 µM; in assay [2] (setting [4]), 0.64 µM.
The matching figures for `COC(=O)c1cc(Cl)cc2cc(CNC(=O)c3[nH]nc4cccnc34)oc12` [Example 49, Methyl 2-((2H-pyrazolo[4,3-b]pyridine-3-carboxamido)methyl)-5-chlorobenzofuran-7-carboxylate]: 93 µM and 71 µM.
Consider `COC(=O)c1cc(Cl)cc2cc(CNC(=O)c3cncc4cccnc34)oc12` [Example 50, Methyl 2-((1,6-naphthyridine-8-carboxamido)methyl)-5-chlorobenzofuran-7-carboxylate], for which the results for the concentration giving a half-maximal response (EC50) in assay [1] (setting [3]) and in assay [2] (setting [4]) were 1.1 µM and 0.93 µM, respectively.
Take `COC(=O)c1cc(Cl)cc2cc(CNC(=O)c3cnn4ccc(OC)nc34)oc12` [Example 51, Methyl 5-chloro-2-((5-methoxypyrazolo[1,5-a]pyrimidine-3-carboxamido)methyl) benzofuran-7-carboxylate]: the half-maximal effective concentration (EC50) in assay [1] (setting [5]) is 3.1 µM; in assay [2] (setting [6]), 4 µM.
The matching figures for `COC(=O)c1cc(Cl)cc2cc(CNC(=O)c3cnc4cccnn34)oc12` [Example 52, Methyl 5-chloro-2-((imidazo[1,2-b]pyridazine-3-carboxamido)methyl) benzofuran-7-carboxylate]: 9.8 µM and 8 µM.
Regarding `COC(=O)c1cc(Cl)cc2cc(CNC(=O)c3cc(N)ccn3)oc12` [Example 53, Methyl 2-((4-aminopicolinamido)methyl)-5-chlorobenzofuran-7-carboxylate], the EC50 in assay [1] (setting [3]) amounted to 27 µM; in assay [2] (setting [4]) it was 22 µM.
In the case of `COC(=O)c1cc(Cl)cc2cc(CNC(=O)c3cnn4ccc(C)nc34)oc12` [Example 54, Methyl 5-chloro-2-((5-methylpyrazolo[1,5-a]pyrimidine-3-carboxamido)methyl) benzofuran-7-carboxylate], the EC50 in assay [1] (setting [5]) and in assay [2] (setting [6]) was 2.6 µM throughout.
Turning to `COC(=O)c1cc(Cl)cc2cc(CNC(=O)c3cnn4cc(C)cnc34)oc12` [Example 55, Methyl 5-chloro-2-((6-methylpyrazolo[1,5-a]pyrimidine-3-carboxamido)methyl) benzofuran-7-carboxylate], the EC50 in assay [1] (setting [5]) and in assay [2] (setting [6]) was 1.1 µM throughout.
`COC(=O)c1cc(Cl)cc2cc(CNC(=O)c3cnn4c(C)ccnc34)oc12` [Example 56, Methyl 5-chloro-2-((7-methylpyrazolo[1,5-a]pyrimidine-3-carboxamido)methyl) benzofuran-7-carboxylate]: the figures for the concentration for a half-maximal effect (EC50) in assay [1] (setting [5]) and in assay [2] (setting [6]) were greater than 33 µM and 30 µM, respectively.
The matching figures for `COC(=O)c1cc(Cl)cc2cc(CNC(=O)c3cnn4cc(Cl)cnc34)oc12` [Example 57, Methyl 5-chloro-2-((6-chloropyrazolo[1,5-a]pyrimidine-3-carboxamido)methyl) benzofuran-7-carboxylate]: 8.1 µM and 9.5 µM.
Turning to `COC(=O)c1cc(Cl)cc2cc(CNC(=O)c3cnccn3)oc12` [Example 58, Methyl 5-chloro-2-((pyrazine-2-carboxamido)methyl) benzofuran-7-carboxylate], the EC50 was 2.9 µM in assay [1] (setting [5]) and 2.7 µM in assay [2] (setting [6]).
The matching figures for `COC(=O)c1cc(Cl)cc2cc(CNC(=O)c3cncc(C)n3)oc12` [Example 59, Methyl 5-chloro-2-((6-methylpyrazine-2-carboxamido)methyl) benzofuran-7-carboxylate]: 2.6 µM and 2.4 µM.
For `COC(=O)c1cc(Cl)cc2cc(CNC(=O)c3cncc(OC)n3)oc12` [Example 60, Methyl 5-chloro-2-((6-methoxypyrazine-2-carboxamido)methyl) benzofuran-7-carboxylate] the same measures were 8.9 µM and 7.7 µM.
For `COC(=O)c1cc(Cl)cc2cc(CNC(=O)c3cncc(Cl)n3)oc12` [Example 61, Methyl 5-chloro-2-((6-chloropyrazine-2-carboxamido)methyl) benzofuran-7-carboxylate] the same measures were 21 µM and 21 µM.
Regarding `COC(=O)c1cc(Cl)cc2cc(CNC(=O)c3cncc(Br)n3)oc12` [Example 62, Methyl 2-((6-bromopyrazine-2-carboxamido)methyl)-5-chlorobenzofuran-7-carboxylate], the EC50 in assay [1] (setting [3]) was determined as 46 µM; in assay [2] (setting [4]), 42 µM.
For the compound `COC(=O)c1cc(Cl)cc2cc(CNC(=O)c3c(N)nn4cccnc34)oc12` [Example 63, Methyl 2-((2-aminopyrazolo[1,5-a]pyrimidine-3-carboxamido)methyl)-5-chlorobenzofuran-7-carboxylate], the EC50 in assay [1] (setting [3]) amounted to 16 µM; in assay [2] (setting [4]) it was 10 µM.
Regarding `CNc1nn2cccnc2c1C(=O)NCc1cc2cc(Cl)cc(C(=O)OC)c2o1` [Example 64, Methyl 5-chloro-2-((2-(methylamino)pyrazolo[1,5-a]pyrimidine-3-carboxamido)methyl)benzofuran-7-carboxylate], the EC50 was greater than 100 µM in assay [1] (setting [3]) and 68 µM in assay [2] (setting [4]).
The matching figures for `COC(=O)c1cc(Cl)cc2cc(CNC(=O)c3cncn(C)c3=O)oc12` [Example 65, Methyl 5-chloro-2-((1-methyl-6-oxo-1,6-dihydropyrimidine-5-carboxamido)methyl)benzofuran-7-carboxylate]: 3.1 µM and 3 µM.
The matching figures for `CCn1cncc(C(=O)NCc2cc3cc(Cl)cc(C(=O)OC)c3o2)c1=O` [Example 66, Methyl 5-chloro-2-((1-ethyl-6-oxo-1,6-dihydropyrimidine-5-carboxamido)methyl)benzofuran-7-carboxylate]: 33 µM and 28 µM.
